In the NIST ThermoML archive (doi:10.1021/acs.jced.8b00348):
± gives the expanded uncertainty stated by the source.

Tests used:
[1] = refractive index (Na D-line) (dimensionless); xn = mol fraction of the nth substance listed; conditions: 293.15 K, 93.13 kPa, Liquid, Standard Abbe refractometry
[2] = Liquid, Ebulliometric method (Recirculating still)
[3] = refractive index (Na D-line) (dimensionless); conditions: 293.15 K; 93.13 kPa; Liquid; Standard Abbe refractometry

## CCc1ccccc1 [ethylbenzene] + COc1ccccc1
[1]; x1 = 1
  refractive index: 1.4955 ± 0.0004

## COc1ccccc1 [anisole] + CCc1ccccc1
[1]; x2 = 0
  refractive index: 1.517 ± 0.0004
[1]; x2 = 0.0762
  refractive index: 1.5152 ± 0.0004
[1]; x2 = 0.1494
  refractive index: 1.5136 ± 0.0004
[1]; x2 = 0.1767
  refractive index: 1.513 ± 0.0004
[1]; x2 = 0.2118
  refractive index: 1.5122 ± 0.0004
[1]; x2 = 0.2442
  refractive index: 1.5115 ± 0.0004
[1]; x2 = 0.2691
  refractive index: 1.511 ± 0.0004
[1]; x2 = 0.3432
  refractive index: 1.5093 ± 0.0004
[1]; x2 = 0.4041
  refractive index: 1.508 ± 0.0004
[1]; x2 = 0.412
  refractive index: 1.5077 ± 0.0004
[1]; x2 = 0.4651
  refractive index: 1.5066 ± 0.0004
[1]; x2 = 0.5183
  refractive index: 1.5055 ± 0.0004
[1]; x2 = 0.6208
  refractive index: 1.5033 ± 0.0004
[1]; x2 = 0.6885
  refractive index: 1.5019 ± 0.0004
[1]; x2 = 0.7927
  refractive index: 1.4998 ± 0.0004
[1]; x2 = 0.9056
  refractive index: 1.4975 ± 0.0004
[1]; x2 = 0.9514
  refractive index: 1.4965 ± 0.0004

## COc1ccccc1 [anisole]
[2]; 423.38 K
  vapor or sublimation pressure: 93.13 ± 0.96 kPa
[3]
  refractive index: 1.517 ± 0.0004

## Cc1ccccc1C [1,2-dimethylbenzene] + COc1ccccc1
[1]; x1 = 1
  refractive index: 1.5048 ± 0.0004

## COc1ccccc1 [anisole] + Cc1cccc(C)c1
[1]; x2 = 0
  refractive index: 1.517 ± 0.0004
[1]; x2 = 0.0756
  refractive index: 1.5154 ± 0.0004
[1]; x2 = 0.1836
  refractive index: 1.5131 ± 0.0004
[1]; x2 = 0.2143
  refractive index: 1.5125 ± 0.0004
[1]; x2 = 0.2716
  refractive index: 1.5113 ± 0.0004
[1]; x2 = 0.3152
  refractive index: 1.5104 ± 0.0004
[1]; x2 = 0.4196
  refractive index: 1.5082 ± 0.0004
[1]; x2 = 0.4711
  refractive index: 1.5072 ± 0.0004
[1]; x2 = 0.5086
  refractive index: 1.5064 ± 0.0004
[1]; x2 = 0.6083
  refractive index: 1.5045 ± 0.0004
[1]; x2 = 0.6746
  refractive index: 1.5031 ± 0.0004
[1]; x2 = 0.7383
  refractive index: 1.5019 ± 0.0004
[1]; x2 = 0.8189
  refractive index: 1.5002 ± 0.0004
[1]; x2 = 0.8552
  refractive index: 1.4997 ± 0.0004
[1]; x2 = 0.9339
  refractive index: 1.4982 ± 0.0004

## Cc1cccc(C)c1 [1,3-dimethylbenzene] + COc1ccccc1
[1]; x1 = 1
  refractive index: 1.497 ± 0.0004

## Cc1cccc(C)c1 [1,3-dimethylbenzene]
[2]; 409.13 K
  vapor or sublimation pressure: 93.13 ± 0.96 kPa
[3]
  refractive index: 1.497 ± 0.0004

## COc1ccccc1 [anisole] + Cc1ccccc1C
[1]; x2 = 0
  refractive index: 1.517 ± 0.0004
[1]; x2 = 0.0825
  refractive index: 1.5159 ± 0.0004
[1]; x2 = 0.1066
  refractive index: 1.5156 ± 0.0004
[1]; x2 = 0.1439
  refractive index: 1.5151 ± 0.0004
[1]; x2 = 0.1945
  refractive index: 1.5144 ± 0.0004
[1]; x2 = 0.2976
  refractive index: 1.5131 ± 0.0004
[1]; x2 = 0.3812
  refractive index: 1.512 ± 0.0004
[1]; x2 = 0.4796
  refractive index: 1.5109 ± 0.0004
[1]; x2 = 0.617
  refractive index: 1.5092 ± 0.0004
[1]; x2 = 0.6785
  refractive index: 1.5084 ± 0.0004
[1]; x2 = 0.7801
  refractive index: 1.5072 ± 0.0004
[1]; x2 = 0.9159
  refractive index: 1.5057 ± 0.0004
[1]; x2 = 0.9329
  refractive index: 1.5056 ± 0.0004

## CCc1ccccc1 [ethylbenzene]
[2]; 406.23 K
  vapor or sublimation pressure: 93.13 ± 0.96 kPa
[3]
  refractive index: 1.4955 ± 0.0004

## Cc1ccc(C)cc1 [1,4-dimethylbenzene] + COc1ccccc1
[1]; x1 = 1
  refractive index: 1.4956 ± 0.0004

## Cc1ccc(C)cc1 [1,4-dimethylbenzene]
[2]; 408.37 K
  vapor or sublimation pressure: 93.13 ± 0.96 kPa
[3]
  refractive index: 1.4956 ± 0.0004

## COc1ccccc1 [anisole] + Cc1ccc(C)cc1
[1]; x2 = 0
  refractive index: 1.517 ± 0.0004
[1]; x2 = 0.0499
  refractive index: 1.5157 ± 0.0004
[1]; x2 = 0.1387
  refractive index: 1.5138 ± 0.0004
[1]; x2 = 0.1684
  refractive index: 1.5131 ± 0.0004
[1]; x2 = 0.2124
  refractive index: 1.5122 ± 0.0004
[1]; x2 = 0.2656
  refractive index: 1.511 ± 0.0004
[1]; x2 = 0.3055
  refractive index: 1.5101 ± 0.0004
[1]; x2 = 0.4128
  refractive index: 1.5078 ± 0.0004
[1]; x2 = 0.4494
  refractive index: 1.507 ± 0.0004
[1]; x2 = 0.4497
  refractive index: 1.507 ± 0.0004
[1]; x2 = 0.5122
  refractive index: 1.5057 ± 0.0004
[1]; x2 = 0.5626
  refractive index: 1.5046 ± 0.0004
[1]; x2 = 0.6095
  refractive index: 1.5036 ± 0.0004
[1]; x2 = 0.8055
  refractive index: 1.4995 ± 0.0004
[1]; x2 = 0.8904
  refractive index: 1.4978 ± 0.0004
[1]; x2 = 0.9613
  refractive index: 1.4964 ± 0.0004

## Cc1ccccc1C [1,2-dimethylbenzene]
[2]; 414.41 K
  vapor or sublimation pressure: 93.13 ± 0.96 kPa
[3]
  refractive index: 1.5048 ± 0.0004
